Legend:
[1] = test system: Escherichia coli EC-1: VOGEL, mouse virulent; test: MIC determination (CLSI), strain EC-1; assay type: cell-based; details: strain EC-1, unit assumed
Summary of the method: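 The mouse-virulent VOGEL isolate of E. coli, EC-1, served as test organism. Minimum inhibitory concentration was measured by CLSI dilution methodology (M7-A7; M100-S18 standards).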

[2] = test system: Pseudomonas aeruginosa UI-18: Wild-type (PA-7); test: MIC determination (CLSI), strain PA-7; assay type: cell-based; details: strain PA-7, unit assumed
Summary of the method: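 MIC determined by broth dilution per CLSI M7-A7 guidelines with M100-S18 interpretive standards. Test organism: wild-type Pseudomonas aeruginosa UI-18, designated PA-7.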

[3] = generated in the same manner as in Table 4

Row | Compound | EC-1 (MIC) [1] | PA-7 (MIC) [2] | EC-1 (MIC) [1, 3] | PA-7 (MIC) [2, 3]
1 | CC(CCn1ccc(-c2ccc3ccc(O)cc3c2)cc1=O)(C(=O)NO)S(C)(=O)=O (stereo not drawn) [Example 299, N-hydroxy-4-[4-(7-hydroxy-2-naphthyl)-2-oxopyridin-1(2H)-yl]-2-methyl-2-(methylsulfonyl)butanamide] | 1 µg/mL | 4 µg/mL | – | –
2 | CC(CCn1ccc(-c2ccc(OCCCn3cncn3)cc2)cc1=O)(C(=O)NO)S(C)(=O)=O (stereo not drawn) [Example 92, N-hydroxy-2-methyl-2-(methylsulfonyl)-4-[2-oxo-4-{4-[3-(1H-1,2,4-triazol-1-yl)propoxy]phenyl}pyridin-1(2H)-yl]butanamide] | – | – | 8 µg/mL | 16 µg/mL
3 | C[C@@](CCn1ccc(-c2ccc(N3CCC(O)CC3)cc2)cc1=O)(C(=O)NO)S(C)(=O)=O [Example 329, (2R)-N-hydroxy-4-{4-[4-(4-hydroxypiperidin-1-yl)phenyl]-2-oxopyridin-1(2H)-yl}-2-methyl-2-(methylsulfonyl)butanamide] | 1 µg/mL | 4 µg/mL | – | –
4 | CC(CCn1ccc(-c2ccc(OCCCO)c(F)c2)cc1=O)(C(=O)NO)S(C)(=O)=O (stereo not drawn) [Example 247, 4-{4-[3-fluoro-4-(3-hydroxypropoxy)phenyl]-2-oxopyridin-1(2H)-yl}-N-hydroxy-2-methyl-2-(methylsulfonyl)butanamide] | 4 µg/mL | 8 µg/mL | – | –
5 | Cc1ccc(-c2ccn(CCC(C)(C(=O)NO)S(C)(=O)=O)c(=O)c2)o1 (stereo not drawn) [Example 158] | – | – | 64 µg/mL | 64 µg/mL
6 | C[C@@](CCn1ccc(-c2ccc(Cl)cc2Cl)cc1=O)(C(=O)NO)S(C)(=O)=O [Example 386] | 2 µg/mL | 2 µg/mL | – | –
7 | Cn1nnc(-c2ccc(-c3ccn(CC[C@](C)(C(=O)NO)S(C)(=O)=O)c(=O)c3)cc2)n1 [Example 376] | 0.5 µg/mL | 2 µg/mL | – | –
8 | CC(CCn1ccc(-c2ccc(OCCCN3CCS(=O)(=O)CC3)cc2)cc1=O)(C(=O)NO)S(C)(=O)=O (stereo not drawn) [Example 82, 4-[4-{4-[3-(1,1-dioxidothiomorpholin-4-yl)propoxy]phenyl}-2-oxopyridin-1(2H)-yl]-N-hydroxy-2-methyl-2-(methylsulfonyl)butanamide] | – | – | 8 µg/mL | 32 µg/mL
9 | Cc1c(-c2ccc(C#N)cc2)ccn(CC[C@](C)(C(=O)NO)S(C)(=O)=O)c1=O [Example 398, (2R)-4-[4-(4-cyanophenyl)-3-methyl-2-oxopyridin-1(2H)-yl]-N-hydroxy-2-methyl-2-(methylsulfonyl)butanamide] | 4 µg/mL | 2 µg/mL | – | –
10 | C[C@@](CCn1ccc(-c2ccc3c(c2)C(=O)OCC3)cc1=O)(C(=O)NO)S(C)(=O)=O [Example 481] | > 64 µg/mL | 64 µg/mL | – | –
11 | CC(CCn1ccc(-c2ccc(OCCCN3CCCC3)cc2)cc1=O)(C(=O)NO)S(C)(=O)=O (stereo not drawn) [Example 78] | – | – | > 64 µg/mL | > 64 µg/mL
12 | CC(CCn1ccc(-c2ccccc2)cc1=O)(C(=O)NO)S(C)(=O)=O (stereo not drawn) [Example 98, N-hydroxy-2-methyl-2-(methylsulfonyl)-4-(2-oxo-4-phenylpyridin-1(2H)-yl)butanamide] | – | – | 64 µg/mL | 32 µg/mL
13 | Cc1cc(-c2ccn(CCC(C)(C(=O)NO)S(C)(=O)=O)c(=O)c2)c(C)cc1OCCO (stereo not drawn) [Example 233, N-hydroxy-4-{4-[4-(2-hydroxyethoxy)-2,5-dimethylphenyl]-2-oxopyridin-1(2H)-yl}-2-methyl-2-(methylsulfonyl)butanamide] | > 64 µg/mL | > 64 µg/mL | – | –
14 | C[C@@](CCn1ccc(-c2ccc(F)cc2F)cc1=O)(C(=O)NO)S(C)(=O)=O [Example 321, (2R)-4-[4-(2,4-difluorophenyl)-2-oxopyridin-1(2H)-yl]-N-hydroxy-2-methyl-2-(methylsulfonyl)butanamide] | 1 µg/mL | 1 µg/mL | – | –
15 | CC(=O)c1ccc(-c2ccn(CCC(C)(C(=O)NO)S(C)(=O)=O)c(=O)c2)s1 (stereo not drawn) [Example 167, 4-[4-(5-acetyl-2-thienyl)-2-oxopyridin-1(2H)-yl]-N-hydroxy-2-methyl-2-(methylsulfonyl)butanamide] | – | – | 16 µg/mL | 16 µg/mL
16 | CC(CCn1ccc(-c2cccc(O)c2F)cc1=O)(C(=O)NO)S(C)(=O)=O (stereo not drawn) [Example 96] | – | – | 64 µg/mL | > 64 µg/mL
17 | CC(CCn1ccc(-c2cccc(F)c2Cl)cc1=O)(C(=O)NO)S(C)(=O)=O (stereo not drawn) [Example 157, 4-[4-(2-chloro-3-fluorophenyl)-2-oxopyridin-1(2H)-yl]-N-hydroxy-2-methyl-2-(methylsulfonyl)butanamide] | – | – | 4 µg/mL | 2 µg/mL

Row | Compound | EC-1 (MIC) [1] | PA-7 (MIC) [2] | EC-1 (MIC) [1, 3] | PA-7 (MIC) [2, 3]
18 | COC(=O)CCc1ccc(-c2ccn(CC[C@](C)(C(=O)NO)S(C)(=O)=O)c(=O)c2)cc1 [Example 478] | 2 µg/mL | 1 µg/mL | – | –
19 | CC(CCn1ccc(-c2ccc(OCCCN3CCNC(=O)C3)cc2)cc1=O)(C(=O)NO)S(C)(=O)=O (stereo not drawn) [Example 86, N-hydroxy-2-methyl-2-(methylsulfonyl)-4-[2-oxo-4-{4-[3-(3-oxopiperazin-1-yl)propoxy]phenyl}pyridin-1(2H)-yl]butanamide] | – | – | 16 µg/mL | 32 µg/mL
20 | CC(CCn1ccc(-c2ccc(C(=O)CO)cc2)cc1=O)(C(=O)NO)S(C)(=O)=O (stereo not drawn) [Example 73, 4-[4-(4-glycoloylphenyl)-2-oxopyridin-1(2H)-yl]-N-hydroxy-2-methyl-2-(methylsulfonyl)butanamide] | – | – | > 64 µg/mL | 64 µg/mL
21 | C[C@@](CCn1ccc(-c2cc(Cl)cc(Cl)c2)cc1=O)(C(=O)NO)S(C)(=O)=O [Example 336, (2R)-4-[4-(3,5-dichlorophenyl)-2-oxopyridin-1(2H)-yl]-N-hydroxy-2-methyl-2-(methylsulfonyl)butanamide] | 4 µg/mL | 8 µg/mL | – | –
22 | CC(CCn1ccc(-c2ccccc2OCC(F)(F)F)cc1=O)(C(=O)NO)S(C)(=O)=O (stereo not drawn) [Example 131, N-hydroxy-2-methyl-2-(methylsulfonyl)-4-{2-oxo-4-[2-(2,2,2-trifluoroethoxy)phenyl]pyridin-1(2H)-yl}butanamide] | – | – | > 64 µg/mL | > 64 µg/mL
23 | CC(CCn1ccc(-c2ccc(OCCCN3CCCC(F)(F)C3)cc2)cc1=O)(C(=O)NO)S(C)(=O)=O (stereo not drawn) [Example 100, 4-[4-{4-[3-(3,3-difluoropiperidin-1-yl)propoxy]phenyl}-2-oxopyridin-1(2H)-yl]-N-hydroxy-2-methyl-2-(methylsulfonyl)butanamide] | – | – | 1 µg/mL | 8 µg/mL
24 | CCOc1ccc2cc(-c3ccn(CC[C@](C)(C(=O)NO)S(C)(=O)=O)c(=O)c3)ccc2n1 [Example 385, (2R)-4-[4-(2-ethoxyquinolin-6-yl)-2-oxopyridin-1(2H)-yl]-N-hydroxy-2-methyl-2-(methylsulfonyl)butanamide] | 0.06 µg/mL | 0.5 µg/mL | – | –
25 | C[C@@](CCn1ccc(-c2ccc3cc(CO)ccc3c2)cc1=O)(C(=O)NO)S(C)(=O)=O [Example 315, (2R)-N-hydroxy-4-{4-[6-(hydroxymethyl)-2-naphthyl]-2-oxopyridin-1(2H)-yl}-2-methyl-2-(methylsulfonyl)butanamide] | 0.5 µg/mL | 1 µg/mL | – | –
26 | Cc1ccc2cc(-c3ccn(CCC(C)(C(=O)NO)S(C)(=O)=O)c(=O)c3)ccc2n1 (stereo not drawn) [Example 300, N-hydroxy-2-methyl-4-[4-(2-methylquinolin-6-yl)-2-oxopyridin-1(2H)-yl]-2-(methylsulfonyl)butanamide] | 4 µg/mL | 8 µg/mL | – | –
27 | CC(CCn1ccc(-c2ccc(OCCCn3cncn3)cc2Cl)cc1=O)(C(=O)NO)S(C)(=O)=O (stereo not drawn) [Example 291, 4-[4-{2-chloro-4-[3-(1H-1,2,4-triazol-1-yl)propoxy]phenyl}-2-oxopyridin-1(2H)-yl]-N-hydroxy-2-methyl-2-(methylsulfonyl)butanamide] | 16 µg/mL | 16 µg/mL | – | –
28 | CC(CCn1ccc(-c2c[nH]c3ccccc23)cc1=O)(C(=O)NO)S(C)(=O)=O (stereo not drawn) [Example 296, N-hydroxy-4-[4-(1H-indol-3-yl)-2-oxopyridin-1(2H)-yl]-2-methyl-2-(methylsulfonyl)butanamide] | 64 µg/mL | 64 µg/mL | – | –
29 | COc1cc(-c2ccn(CCC(C)(C(=O)NO)S(C)(=O)=O)c(=O)c2)ccc1OCCCO (stereo not drawn) [Example 249, N-hydroxy-4-{4-[4-(3-hydroxypropoxy)-3-methoxyphenyl]-2-oxopyridin-1(2H)-yl}-2-methyl-2-(methylsulfonyl)butanamide] | > 64 µg/mL | 64 µg/mL | – | –
30 | CC(C)(O)Cc1ccc(-c2ccn(CCC(C)(C(=O)NO)S(C)(=O)=O)c(=O)c2)cc1 (stereo not drawn) [Example 255, N-hydroxy-4-{4-[4-(2-hydroxy-2-methylpropyl)phenyl]-2-oxopyridin-1(2H)-yl}-2-methyl-2-(methylsulfonyl)butanamide] | 2 µg/mL | 8 µg/mL | – | –
31 | CC(C)(C#N)c1ccc(-c2ccn(CC[C@](C)(C(=O)NO)S(C)(=O)=O)c(=O)c2)cc1 [Example 362, (2R)-4-{4-[4-(1-cyano-1-methylethyl)phenyl]-2-oxopyridin-1(2H)-yl}-N-hydroxy-2-methyl-2-(methylsulfonyl)butanamide] | 16 µg/mL | 4 µg/mL | – | –
32 | COc1ccc(OC)c(-c2ccn(CCC(C)(C(=O)NO)S(C)(=O)=O)c(=O)c2)c1 (stereo not drawn) [Example 195, 4-[4-(2,5-dimethoxyphenyl)-2-oxopyridin-1(2H)-yl]-N-hydroxy-2-methyl-2-(methylsulfonyl)butanamide] | > 64 µg/mL | > 64 µg/mL | – | –
33 | Cc1cc(OCCCN2CCOCC2)ccc1-c1ccn(CCC(C)(C(=O)NO)S(C)(=O)=O)c(=O)c1 (stereo not drawn) [Example 228, N-hydroxy-2-methyl-4-{4-[2-methyl-4-(3-morpholin-4-ylpropoxy)phenyl]-2-oxopyridin-1(2H)-yl}-2-(methylsulfonyl)butanamide] | 8 µg/mL | 16 µg/mL | – | –

— patent publication US8846933B2, “N-link hydroxamic acid derivatives useful as antibacterial agents” (Pfizer Inc., priority 2009, dated 2014)
